From patent US20240101572A1, “DIHYDROOXADIAZINONE COMPOUND AND PHARMACEUTICAL USE THEREOF” (Japan Tobacco Inc., priority 2022, published 2024) come the findings set out here.

Like-named read-outs stand apart in the source and are kept apart here. Bounds are passed on as bounds.

The target in one experiment is full-length human PLD1 (Homo sapiens (Human), UniProt Q13393). The experiment in a line: Evaluation of human PLD1 enzyme inhibitory activity (Amplex Red / choline oxidase fluorescence). The experiment is classed as biochemical. In a few lines:
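N-terminally FLAG-tagged full-length human PLD1 (1-1036), expressed in Expi293F and FLAG-purified, incubated with compound (5% DMSO final) and 1,2-diheptanoyl-sn-glycero-3-phosphocholine for 60 min at room temperature in HEPES pH 7.5 buffer. Released choline detected by Amplex Red/choline oxidase/HRP fluorescence.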

The next experiment has as its target full-length human PLD2 (Homo sapiens (Human), UniProt O14939). Nature of the experiment: Evaluation of human PLD2 enzyme inhibitory activity (Amplex Red / choline oxidase fluorescence). The class given is biochemical. The procedure, abridged: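 Enzyme was N-terminal FLAG-tagged full-length human PLD2 (1-933), expressed in Expi293F cells and anti-FLAG purified. Compound (5% DMSO final) was incubated with enzyme (6 nmol/L solution) and 1,2-diheptanoyl-PC (6 mmol/L solution) in HEPES pH 7.5, KCl, EGTA, MgCl2, NP-40, BSA buffer for 60 min at room temperature. Choline was detected with Amplex Red/choline oxidase/HRP.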

The mark [1] stands for this setting: column 1 of continuation tables 2-12 to 2-14, read-out: human PLD1 enzyme inhibitory activity IC50.
Where [2] appears, read: column 2 of continuation tables 2-12 to 2-14, read-out: human PLD2 enzyme inhibitory activity IC50.
Setting [3] is: full-length human PLD1 enzyme, read-out: PLD1 IC50.
The mark [4] stands for this setting: full-length human PLD2 enzyme, read-out: PLD2 IC50.
Setting [5] is: read-out: inhibition rate of PLD1 at 10 μM compound.
Setting [6] is: read-out: inhibition rate of PLD2 at 10 μM compound.

The term IC50 denotes the point on the concentration scale where inhibition reaches its midpoint. One may read the inhibition as the relative decrease from the control value, in per cent.

Sequence of full-length human PLD2 (O14939 whole entry): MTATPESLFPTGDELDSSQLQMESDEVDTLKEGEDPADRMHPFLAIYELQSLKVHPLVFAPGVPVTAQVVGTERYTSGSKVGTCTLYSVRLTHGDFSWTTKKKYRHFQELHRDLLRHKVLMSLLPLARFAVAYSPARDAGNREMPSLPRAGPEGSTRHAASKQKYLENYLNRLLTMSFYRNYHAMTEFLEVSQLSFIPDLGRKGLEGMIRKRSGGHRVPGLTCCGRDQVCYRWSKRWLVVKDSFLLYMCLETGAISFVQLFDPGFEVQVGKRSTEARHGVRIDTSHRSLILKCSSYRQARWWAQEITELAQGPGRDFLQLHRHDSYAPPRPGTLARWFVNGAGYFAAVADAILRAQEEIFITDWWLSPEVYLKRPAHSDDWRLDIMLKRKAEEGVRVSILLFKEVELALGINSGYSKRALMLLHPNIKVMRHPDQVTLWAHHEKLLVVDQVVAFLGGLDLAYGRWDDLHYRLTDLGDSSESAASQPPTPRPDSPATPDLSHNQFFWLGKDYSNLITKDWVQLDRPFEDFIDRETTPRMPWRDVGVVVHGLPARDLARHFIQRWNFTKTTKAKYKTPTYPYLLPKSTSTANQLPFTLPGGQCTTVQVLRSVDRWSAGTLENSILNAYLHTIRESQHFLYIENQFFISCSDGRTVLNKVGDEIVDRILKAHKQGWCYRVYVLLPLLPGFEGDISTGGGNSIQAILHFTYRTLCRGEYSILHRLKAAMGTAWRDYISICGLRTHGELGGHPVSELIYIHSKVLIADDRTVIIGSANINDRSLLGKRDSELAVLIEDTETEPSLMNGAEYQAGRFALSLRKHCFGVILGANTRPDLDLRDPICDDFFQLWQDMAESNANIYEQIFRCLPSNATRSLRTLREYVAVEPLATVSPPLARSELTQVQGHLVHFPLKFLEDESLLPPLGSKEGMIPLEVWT
Sequence of full-length human PLD1 (Q13393 other isoform, or with tags, fused parts or gaps): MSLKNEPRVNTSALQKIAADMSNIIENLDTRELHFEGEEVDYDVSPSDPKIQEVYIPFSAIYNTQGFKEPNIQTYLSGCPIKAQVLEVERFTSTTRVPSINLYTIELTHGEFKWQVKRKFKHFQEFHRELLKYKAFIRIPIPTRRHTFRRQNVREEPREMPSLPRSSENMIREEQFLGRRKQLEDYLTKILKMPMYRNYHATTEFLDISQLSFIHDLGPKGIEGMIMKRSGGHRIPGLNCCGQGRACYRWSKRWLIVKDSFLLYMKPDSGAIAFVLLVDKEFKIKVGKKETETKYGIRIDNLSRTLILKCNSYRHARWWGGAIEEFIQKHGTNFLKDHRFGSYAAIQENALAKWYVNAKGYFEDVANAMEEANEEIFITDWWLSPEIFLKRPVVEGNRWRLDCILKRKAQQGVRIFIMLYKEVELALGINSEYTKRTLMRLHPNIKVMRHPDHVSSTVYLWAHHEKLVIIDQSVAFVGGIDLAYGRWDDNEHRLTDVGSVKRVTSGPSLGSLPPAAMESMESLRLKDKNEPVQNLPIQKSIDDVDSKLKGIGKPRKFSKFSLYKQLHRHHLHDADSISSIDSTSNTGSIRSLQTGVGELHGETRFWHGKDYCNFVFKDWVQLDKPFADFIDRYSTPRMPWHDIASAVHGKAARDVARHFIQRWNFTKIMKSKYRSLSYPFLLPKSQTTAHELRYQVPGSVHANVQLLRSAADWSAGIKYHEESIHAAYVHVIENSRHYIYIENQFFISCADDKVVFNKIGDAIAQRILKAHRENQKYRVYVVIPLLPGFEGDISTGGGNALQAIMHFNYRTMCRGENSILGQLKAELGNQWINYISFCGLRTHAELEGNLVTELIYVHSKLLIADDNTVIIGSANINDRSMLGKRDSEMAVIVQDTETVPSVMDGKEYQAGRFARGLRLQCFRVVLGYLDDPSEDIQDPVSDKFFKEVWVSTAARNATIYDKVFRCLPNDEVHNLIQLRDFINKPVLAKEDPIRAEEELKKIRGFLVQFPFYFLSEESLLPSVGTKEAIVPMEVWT

In the case of `[2H]C([2H])([2H])NC(=O)C(=O)N[C@@H](C)C[C@]1(C#N)CC[C@@]2(CC1)OC(=O)NN=C2c1cc(OC(F)(F)F)ccc1Br` [Example 2-132], the IC50 on full-length human PLD1 (setting [1]) was 11 nM; at full-length human PLD2 (setting [2]), less than 10 nM.

For `CNC(=O)C(=O)N[C@@H](C)C[C@H]1CC[C@]2(CC1)OC(=O)NN=C2c1ccccc1SC(F)(F)F` [Example 2-019], the IC50 on full-length human PLD1 (setting [3]) was 12 nM; on full-length human PLD2 (setting [4]) it was less than 10 nM.

With `Cc1ccc(C(=O)N[C@@H](C)C[C@H]2CC[C@]3(CC2)OC(=O)NN=C3c2ccc(F)cc2Br)nn1` [Example 252], the IC50 at full-length human PLD1 (setting [3]) came out at 174 nM; on full-length human PLD2 (setting [4]), 335 nM.

As to `CNC(=O)C(=O)N[C@@H](C)C[C@H]1CC[C@]2(CC1)OC(=O)NN=C2c1ncccc1Br` [Example 2-013], the IC50 on full-length human PLD1 (setting [3]) is 12 nM; on full-length human PLD2 (setting [4]), less than 10 nM.

Consider `Cc1cc(C(=O)N[C@@H](C)C[C@]2(F)CC[C@@]3(CC2)OC(=O)NN=C3c2cc(C#N)ccc2Br)[nH]n1` [Example 311], for which the IC50 on full-length human PLD1 (setting [3]) was 15 nM; at full-length human PLD2 (setting [4]) it was less than 10 nM.

As for `CNC(=O)C(=O)N[C@@H](C)C[C@H]1CC[C@]2(CC1)OC(=O)NN=C2c1cnc(C2CC2)cc1Cl` [Example 265], the IC50 on full-length human PLD1 (setting [3]) is 13 nM; on full-length human PLD2 (setting [4]), less than 10 nM.

With `C[C@@H](CN1CCC2(CC1)OC(=O)NN=C2c1cc(C#N)ccc1Br)NC(=O)CCC(F)(F)F` [Example 2-023], the IC50 at full-length human PLD1 (setting [3]) came to 102 nM; on full-length human PLD2 (setting [4]) it was 64 nM.

As to `Cc1cc(C(=O)N[C@@H](C)C[C@H]2CC[C@]3(CC2)OC(=O)NN=C3c2cnc(N3CCOCC3)cc2C)[nH]n1` [Example 221], the IC50 at full-length human PLD1 (setting [3]) is 16 nM; on full-length human PLD2 (setting [4]) it was less than 10 nM.

As for `Cc1cc(C(=O)N[C@@H](C)C[C@H]2CC[C@]3(CC2)OC(=O)NN=C3c2cnc(N3CCC(F)(F)C3)cc2Cl)[nH]n1` [Example 224], the results for the IC50 on full-length human PLD1 (setting [3]) and on full-length human PLD2 (setting [4]) were 13 nM and less than 10 nM, respectively.

On to `CNC(=O)C(=O)N[C@@H](C)CN1CC[C@@]2(C[C@H]1C)OC(=O)NN=C2c1ccc(C#N)cc1Cl` [Example 233], for which the IC50 on full-length human PLD1 (setting [3]) is 1860 nM; at full-length human PLD2 (setting [4]), 1800 nM.

Consider `CNC(=O)C(=O)N[C@@H](C)[C@@H](C)N1CCC2(CC1)OC(=O)NN=C2c1ccc(F)cc1Br` [Example 291], for which the figures for the IC50 on full-length human PLD1 (setting [3]) and at full-length human PLD2 (setting [4]) were 150 nM and 234 nM, respectively.

Take `C[C@@H](C[C@H]1CC[C@]2(CC1)OC(=O)NN=C2c1cc(OCC(F)(F)F)ccc1Br)NC(=O)C(=O)NC1CC1` [Example 297]: the IC50 on full-length human PLD1 (setting [3]) is 13 nM; on full-length human PLD2 (setting [4]) it was less than 10 nM.

Turning to `CC(C)=CC(=O)N[C@@H](C)CN1CCC2(CC1)OC(=O)NN=C2c1cc(C#N)ccc1Br` [Example 2-022], the IC50 on full-length human PLD1 (setting [3]) was 738 nM; at full-length human PLD2 (setting [4]), 388 nM.

For the compound `CNC(=O)C(=O)N[C@@H](C)C[C@H]1CC[C@]2(CC1)OC(=O)NN=C2c1cnc(C(=O)O)cc1C` [Example 186], the inhibition at 10 µM on full-length human PLD1 (10 μM compound, read-out: PLD1 inhibition rate at 10 μM) is 33%; at full-length human PLD1 (setting [5]) it was 33%; at full-length human PLD2 (10 μM compound, read-out: PLD2 inhibition rate at 10 μM), 18%; at full-length human PLD2 (setting [6]) it was 18%.

In the case of `Cc1cc(C(=O)N[C@@H](C)C[C@H]2CC[C@]3(CC2)OC(=O)NN=C3c2cnc(N3CC(F)(F)C3)cc2C)[nH]n1` [Example 273], the IC50 at full-length human PLD1 (setting [3]) is 19 nM; at full-length human PLD2 (setting [4]) it was less than 10 nM.

Take `[2H]C([2H])([2H])NC(=O)C(=O)N[C@@H](C)C[C@]1(C#N)CC[C@@]2(CC1)OC(=O)NN=C2c1cccc(C(F)(F)F)c1Br` [Example 2-118]: the IC50 at full-length human PLD1 (setting [1]) is 19 nM; on full-length human PLD2 (setting [2]), less than 10 nM.

For the compound `CNC(=O)C(=O)N[C@@H](C)C[C@H]1CC[C@]2(CC1)OC(=O)NN=C2c1cc(C(=O)NC(C)(C)C)ccc1Br` [Example 299], the IC50 is 25 nM on full-length human PLD1 (setting [3]) and less than 10 nM at full-length human PLD2 (setting [4]).

In the case of `CNC(=O)C(=O)N[C@@H](C)C[C@H]1CC[C@]2(CC1)OC(=O)NN=C2c1ccc(S(=O)(=O)C(C)C)cc1Br` [Example 66], the IC50 at full-length human PLD1 (setting [3]) is 16 nM; at full-length human PLD2 (setting [4]), less than 10 nM.

Regarding `C[C@@H](C[C@H]1CC[C@]2(CC1)OC(=O)NN=C2c1cc(OC(F)(F)F)ccc1Br)NC(=O)C(=O)NC1CC1` [Example 295], the IC50 at full-length human PLD1 (setting [3]) and on full-length human PLD2 (setting [4]) was less than 10 nM in each case.

On to `Cc1cc(C(=O)N[C@@H](C)C[C@H]2CC[C@]3(CC2)OC(=O)NN=C3c2cnc(N3CC4CCC(C3)O4)cc2C)[nH]n1` [Example 251], for which the IC50 is 17 nM at full-length human PLD1 (setting [3]) and less than 10 nM at full-length human PLD2 (setting [4]).

For the compound `C[C@@H](C[C@H]1CC[C@]2(CC1)OC(=O)NN=C2c1cc(C#N)ccc1Br)NC(=O)C(=O)O` [Example 2-171], the inhibition at 10 µM at full-length human PLD1 (read-out: human PLD1 % inhibition at 10 μM) came out at 12%; on full-length human PLD1 (setting [5]), 12%; at full-length human PLD2 (read-out: human PLD2 % inhibition at 10 μM), 23%; at full-length human PLD2 (setting [6]) it was 23%.

Take `C[C@@H](C[C@H]1CC[C@]2(CC1)OC(=O)NN=C2c1ccc(OC(F)(F)F)cc1Br)NC(=O)NC1CC1` [Example 195]: the figures for the IC50 at full-length human PLD1 (setting [3]) and on full-length human PLD2 (setting [4]) were 39 nM and 67 nM, respectively.

For `C[C@@H](C[C@H]1CC[C@]2(CC1)OC(=O)NN=C2c1cccnc1)NC(=O)c1cc2cc(F)ccc2[nH]1` [Example 15], the IC50 on full-length human PLD1 (setting [3]) is 25 nM; on full-length human PLD2 (setting [4]) it was less than 10 nM.

Consider `Cc1cc(F)ccc1C1=NNC(=O)O[C@]12CC[C@@H](C[C@H](C)NC(=O)N1CC[C@H](c3ccccc3)C1)CC2` [Example 137], for which the IC50 on full-length human PLD1 (setting [3]) turned out to be 505 nM; at full-length human PLD2 (setting [4]), 1590 nM.

On to `C[C@@H](C[C@H]1CC[C@]2(CC1)OC(=O)NN=C2c1ccc(F)cc1Cl)NC(=O)c1cc2ccccc2o1` [Example 46], for which the IC50 on full-length human PLD1 (setting [3]) was 12 nM; at full-length human PLD2 (setting [4]), less than 10 nM.

Consider `CNC(=O)C(=O)N[C@@H](C)C[C@H]1CC[C@]2(CC1)OC(=O)NN=C2c1nccn1CC1CC1` [Example 82], for which the figures for the IC50 at full-length human PLD1 (setting [3]) and on full-length human PLD2 (setting [4]) were 421 nM and 358 nM, respectively.

On to `[2H]C([2H])([2H])NC(=O)C(=O)N[C@@H](C)C[C@]1(OC)CC[C@@]2(CC1)OC(=O)NN=C2c1cccc(C(F)(F)F)c1Br` [Example 2-129], for which the results for the half-inhibitory concentration (IC50) at full-length human PLD1 (setting [1]) and on full-length human PLD2 (setting [2]) were 25 nM and less than 10 nM, respectively.

As to `COc1cc(C)c(C2=NNC(=O)O[C@]23CC[C@@H](C[C@H](C)NC(=O)N2CCn4ncnc4C2)CC3)cn1` [Example 257], the values for the IC50 on full-length human PLD1 (setting [3]) and on full-length human PLD2 (setting [4]) were 262 nM and 215 nM, respectively.

`CNC(=O)C(=O)N[C@@H](C)C[C@H]1CC[C@]2(CC1)OC(=O)NN=C2c1cnc(N2CC3CCC(C2)O3)cc1Cl` [Example 246]: the IC50 was 15 nM on full-length human PLD1 (setting [3]) and less than 10 nM on full-length human PLD2 (setting [4]).

Take `CNC(=O)C(=O)N[C@@H](C)CN1CCC2(CC1)OC(=O)NN=C2c1ccc(F)cc1Cl` [Example 90]: the IC50 was determined as 45 nM on full-length human PLD1 (setting [3]) and 18 nM on full-length human PLD2 (setting [4]).

Regarding `C[C@@H](C[C@H]1CC[C@]2(CC1)OC(=O)NN=C2c1ccc(F)cc1Cl)NC(=O)C(=O)NC1CC1` [Example 70], the IC50 was 28 nM on full-length human PLD1 (setting [3]) and 20 nM on full-length human PLD2 (setting [4]).

On to `CNC(=O)C(=O)N[C@@H](C)C[C@]1(C#N)CC[C@@]2(CC1)OC(=O)NN=C2c1cc(C#N)ccc1Br` [Example 2-040], for which the IC50 on full-length human PLD1 (setting [3]) was 21 nM; at full-length human PLD2 (setting [4]) it was less than 10 nM.

Consider `C[C@@H](C[C@H]1CC[C@]2(CC1)OC(=O)NN=C2c1ccccc1S(C)(=O)=O)NC(=O)c1cc(Cl)no1` [Example 78], for which the IC50 at full-length human PLD1 (setting [3]) came to 350 nM; at full-length human PLD2 (setting [4]), 252 nM.

With `CNC(=O)/C=C/C(=O)N[C@@H](C)CN1CCC2(CC1)OC(=O)NN=C2c1cc(C#N)ccc1Br` [Example 2-041], the IC50 is 148 nM on full-length human PLD1 (setting [3]) and 103 nM on full-length human PLD2 (setting [4]).
